How the values were obtained:
Type in all cases: in vivo
Abutilon theophrasti [1] = test: Pre-emergence herbicidal activity, glasshouse pot test; conditions: pre-emergence spray, rate 1000 g/ha, evaluated after 13 days, scale 0-5
In short: (§1)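 Test species were sown in pots and, after one day under controlled glasshouse conditions, treated with an aqueous spray of the active ingredient in acetone/water containing 0.5% Tween 20. Evaluation followed 13 days later, scoring plant damage from 0 (none) to 5 (total).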

Alopecurus myosuroides [2] = test: as above; conditions: pre-emergence spray, rate 1000 g/ha, evaluated after 13 days, scale 0-5
In short: as §1

Amaranthus retroflexus [3] = test: as above; conditions: pre-emergence spray, rate 1000 g/ha, evaluated after 13 days, scale 0-5
In short: as §1

Echinochloa crus-galli [4] = test: as above; conditions: pre-emergence spray, rate 1000 g/ha, evaluated after 13 days, scale 0-5
In short: as §1

Setaria faberi [5] = test: as above; conditions: pre-emergence spray, rate 1000 g/ha, evaluated after 13 days, scale 0-5
In short: as §1

zea mays [6] = test: as above; conditions: pre-emergence spray, rate 1000 g/ha, evaluated after 13 days, scale 0-5
In short: as §1

Abutilon theophrasti [7] = test: Post-emergence herbicidal activity, glasshouse pot test; set-up: key: 0 = no damage to plant, 5 = total damage to plant; conditions: Application post-emergence, rate 1000 g/ha, evaluated after 13 days
In short: (§2)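 Seeds sown in standard soil in pots, grown 8 days in glasshouse (24/16 °C day/night, 14 h light, 65% humidity), then sprayed with aqueous solution from active ingredient formulated in acetone/water (50:50) with 0.5% Tween 20. Plants regrown under same conditions, watered twice daily; damage scored after 13 days (0 none–5 total).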

Alopecurus myosuroides [8] = test: as above; set-up: key: 0 = no damage to plant, 5 = total damage to plant; conditions: Application post-emergence, rate 1000 g/ha, evaluated after 13 days
In short: as §2

Amaranthus retroflexus [9] = test: as above; set-up: key: 0 = no damage to plant, 5 = total damage to plant; conditions: Application post-emergence, rate 1000 g/ha, evaluated after 13 days
In short: as §2

Echinochloa crus-galli [10] = test: as above; set-up: key: 0 = no damage to plant, 5 = total damage to plant; conditions: Application post-emergence, rate 1000 g/ha, evaluated after 13 days
In short: as §2

Setaria faberi [11] = test: as above; set-up: key: 0 = no damage to plant, 5 = total damage to plant; conditions: Application post-emergence, rate 1000 g/ha, evaluated after 13 days
In short: as §2

zea mays [12] = test: as above; set-up: key: 0 = no damage to plant, 5 = total damage to plant; conditions: Application post-emergence, rate 1000 g/ha, evaluated after 13 days
In short: as §2

SMILES | ABUTH damage score, application pre-emergence (Abutilon theophrasti [1]) | ALOMY damage score, application pre-emergence (Alopecurus myosuroides [2]) | AMARE damage score, application pre-emergence (Amaranthus retroflexus [3]) | ECHCG damage score, application pre-emergence (Echinochloa crus-galli [4]) | SETFA damage score, application pre-emergence (Setaria faberi [5]) | ZEAMX damage score, application pre-emergence (zea mays [6]) | ABUTH herbicidal damage score (Abutilon theophrasti [7]) | ALOMY herbicidal damage score (Alopecurus myosuroides [8]) | AMARE herbicidal damage score (Amaranthus retroflexus [9]) | ECHCG herbicidal damage score (Echinochloa crus-galli [10]) | SETFA herbicidal damage score (Setaria faberi [11]) | ZEAMX herbicidal damage score (zea mays [12])
CC1=C(Cl)C(=O)N(c2cc(C)c(-c3ccsc3)cn2)C1O (stereo not drawn) [AF104] | 1 | 0 | 5 | 1 | 1 | 0 | 4 | 2 | 5 | 5 | 5 | 0
CC1=C(Cl)C(=O)N(c2cc3c(cn2)CCCC3)C1O (stereo not drawn) [AF89] | 1 | 2 | 2 | 3 | 5 | 1 | 5 | 3 | 5 | 5 | 5 | 1
COC1=C(C)C(O)N(c2ccc(C(=O)NC(C)(C)C#N)cn2)C1=O (stereo not drawn) [AI25] | 4 | 4 | 5 | 3 | 4 | 2 | 5 | 5 | 5 | 5 | 5 | 3
CCOC(=O)c1ccc(N2C(=O)C(OC)=C(C)C2O)nn1 (stereo not drawn) [BI4] | 0 | 0 | 0 | 0 | 0 | 0 | 0 | 0 | 0 | 0 | 0 | 0
COC1=C(C)C(O)N(c2cc(C)c(OC)nn2)C1=O (stereo not drawn) [BG1] | 2 | 3 | 5 | 4 | 2 | 1 | 5 | 4 | 5 | 5 | 5 | 4
COc1ccc(N2C(=O)C(Cl)=C(C)C2O)nc1 (stereo not drawn) [AF56] | 2 | 0 | 1 | 0 | 0 | 0 | 5 | 4 | 3 | 4 | 4 | 2
CC1=C(Cl)C(=O)N(c2cc(C(C)(C)F)c(Cl)nn2)C1O (stereo not drawn) [BF11] | 0 | 0 | 0 | 0 | 0 | 0 | 2 | 2 | 2 | 3 | 3 | 1
COC1=C(C)C(O)N(c2cc(C(F)(F)F)c(C(=O)N(C)C)cn2)C1=O (stereo not drawn) [AI11] | 5 | 4 | 5 | 4 | 4 | 4 | 5 | 5 | 5 | 5 | 5 | 4
CCC(C)(C)NC(=O)c1cnc(N2C(=O)C(OC)=C(C)C2O)cc1C (stereo not drawn) [AI35] | 5 | 4 | 5 | 5 | 5 | 2 | 5 | 5 | 5 | 5 | 5 | 3
COC1=C(C)C(O)N(c2ccc(C(=O)NC(C)(C)C#N)nn2)C1=O (stereo not drawn) [BI7] | 4 | 3 | 5 | 3 | 4 | 1 | 4 | 4 | 5 | 4 | 5 | 2
COC1=C(C)C(O)N(c2cc(C)c(C(=O)NC(C)C(C)C)cn2)C1=O (stereo not drawn) [AI36] | 5 | 4 | 5 | 4 | 5 | 2 | 5 | 5 | 5 | 5 | 5 | 3
COC1=C(C)C(O)N(c2cc(C)c(C#N)nn2)C1=O (stereo not drawn) [BI5] | 0 | 0 | 0 | 0 | 0 | 0 | 0 | 0 | 0 | 0 | 0 | 0
COC1=C(C)C(O)N(c2cc(C(C)(C)C)c(N3CC(F)(F)C3)nn2)C1=O (stereo not drawn) [BI31] | 5 | 4 | 5 | 4 | 5 | 3 | 5 | 5 | 5 | 5 | 5 | 4

Source: patent publication US9963445B2, “Chemical compounds” (SYNGENTA PARTICIPATIONS AG, priority 2013, dated 2018)
